According to ChEMBL document CHEMBL5214882, “Targeting Atg4B for cancer therapy: Chemical mediators” (Eur J Med Chem, 2021):

Assays:
Cysteine protease ATG4B = molecular target: T1, Cysteine protease ATG4B (Homo sapiens, UniProt Q9Y4P1); experiment: Inhibition of ATG4B (unknown origin) using proLC3B as substrate by FRET-LC3 assay
T1 sequence (Q9Y4P1 whole entry): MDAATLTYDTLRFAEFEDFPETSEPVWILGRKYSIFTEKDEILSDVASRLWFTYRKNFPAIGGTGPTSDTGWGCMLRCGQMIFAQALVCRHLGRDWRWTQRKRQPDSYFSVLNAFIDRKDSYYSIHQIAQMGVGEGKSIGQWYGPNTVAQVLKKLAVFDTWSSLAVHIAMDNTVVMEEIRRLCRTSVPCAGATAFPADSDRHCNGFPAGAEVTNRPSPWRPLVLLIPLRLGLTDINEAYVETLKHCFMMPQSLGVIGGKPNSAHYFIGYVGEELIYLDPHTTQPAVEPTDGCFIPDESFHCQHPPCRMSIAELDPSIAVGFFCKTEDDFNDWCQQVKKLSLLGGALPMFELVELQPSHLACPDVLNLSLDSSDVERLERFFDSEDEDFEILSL

HCT-116 = experiment: Antitumor activity against human HCT-116 cells […] in mouse assessed as tumor growth inhibition at 50 mg/kg,sc administered for 5 weeks by 3 times a week; format: functional; conditions: HCT-116, 840 h

Structure (SMILES)	IC50 (Cysteine protease ATG4B)	inhibition in vivo at 50 mg/kg (HCT-116)
Cc1cc(O)c2c(=O)c3c(O)cc(O)c4c5c(O)cc(O)c6c(=O)c7c(O)cc(C)c8c1c2c(c34)c(c78)c65 [HYPERICIN]	8.9 µM	–
COc1ccc(Nc2cc(C)nc(Nc3ccc(-c4cc5ccccc5o4)cc3)n2)cc1	–	75%
O=C(N[C@@H](Cc1ccccc1)C(=O)CCl)OCc1ccccc1	3.3 µM	–
